# Measurements from patent US20030018079A1, “Treatment” (priority 2000, published 2003).
# Experiment: Studies 004 and 005 together: timolol run-in and comparison of patient groups
# Assay type: in vivo, patients
# Conditions: timolol run-in period before baseline
# Description: A sub-population of 76 individuals in a population of total 854 patients enrolled into two different studies of German patients (004) and US patients (005) were identified at baseline as having some degree of abnormality to the optic nerve head together with a glaucomatous visual field defect and were treated with a fixed combination (FC) of latanoprost and timolol. Both studies were based on a randomized double-masked parallel group design. In both studies, a fixed combination (FC) of latanoprost and timolol was administered to a group of patients with optic nerve head damage and visual field loss (i.e. glaucomatous field defects) and to groups of patients without any such detected damages, but with an elevation of IOP. Patient demography and baseline characteristics in patients with and without optic nerve head damages and glaucomatous field defects are shown in Table 2.1.
# The patients is the studies received one drop in the morning of a fixed combination of latanoprost (50 μg/ml) and timolol (5 mg/ml) during the study duration of 26 weeks. The exact composition of fixed combination is disclosed in Table 1. At baseline, IOP assessments were made at 08:00, 10:00, and 16:00. Measurements at the same time-points were subsequently made at scheduled clinic visits at Week 2, Week 13, and Week 26. Additionally, an 08:00 measurement was also obtained at Week 6. […]
smiles,measurement,value
CC(C)(C)NC[C@H](O)COc1nsnc1N1CCOCC1 [timolol],decrease in IOP,approximately 5 mm Hg
